Results: patent US10548911B2, “Small molecule anti-scarring agents” (UNIVERSITY OF ROCHESTER, priority 2014, dated 2020)
Entries after “also recorded” stand apart in the source; their conditions may differ.

Tests used:
[1] = tested on: primary human orbital fibroblasts; assay: TGFβ-induced myofibroblast formation, αSMA Western blot, primary human orbital fibroblasts; conditions: for overt toxicity / TGFβ-induced myofibroblast differentiation (αSMA expression): 2-500 μM
Procedure: Total protein was isolated from 0.5-2×10^6 cells and lysed in 60 mM Tris, pH 6.8, 2% SDS containing 1× protease inhibitor cocktail (Sigma, St. Louis, Mo.). The lysates were passed through a 26 gauge needle 5-6 times to shear genomic DNA. Protein concentrations were determined using the detergent compatible protein assay (BioRad). Total protein (1-10 ug per lane) was subjected to SDS-PAGE. Protein gels were transferred to PVDF membrane (Millipore) and probed with antibodies as specified. Western blot band intensities were quantified using ImageLab software (BioRad). Protein expression was normalized to β-tubulin levels.
Primary human orbital fibroblasts, primary human lung fibroblasts, and primary mouse lung fibroblasts were treated with TGFβ and HCPT (50 nM, 500 nM, and 5000 nM) or SNC (500 nM) or AXD (0.5 μM, 5 μM, and 50 μM) to assess the ability of HCPT to inhibit myofibroblast formation. […] Western blots were performed using cell lysates from the fibroblasts exposed to TGFβ to assess TGFβ-dependent αSMA expression.
Primary human orbital fibroblasts were treated with TGFβ and either 6-formylindolo(3,2-b)carbazole (“FICZ”, 1 μM), Omeprazole (“Ome”, 2 μM, 10 μM, 50 μM, 100 μM, 250 μM, 500 μM), or Flutamide (“Flut”, 2 μM, 10 μM, 50 μM, 100 μM, 250 μM, 500 μM) to assess their ability to inhibit myofibroblast formation. […] Western blots were performed using cell lysates from the fibroblasts exposed to TGFβ to assess TGFβ-dependent αSMA expression. Densitometry analyses of the Western blots were also performed.

[2] = tested on: TGFβ-induced luciferase activity; assay: Spectrum collection small molecule screen with TGFβ-dependent SBE-luciferase HEK293FT reporter cell line; assay type: cell-based, human; conditions: HEK293FT-luc reporter line
Excerpt: The minimal thymidine kinase promoter was amplified by PCR with the following forward and reverse primers, of which the forward primer contained four tandem Smad binding elements (SBE):
Restriction sites in the primers are underlined. The resultant PCR product was TOPO cloned (Invitrogen) and the correct insert was verified by DNA sequencing. The construct was digested with SacI-HindIII and the SBEx4-TK insert was purified and ligated with the pGL4.15 vector (Promega). Clones were verified by restriction digest and then tested for TGFβ responsiveness in transient transfections of 293FT cells. […] Clones were selected by treatment with 200 μg/ml hygromycin. 20 clones were selected and screened for TGFβ-induced luciferase activity. One clone that was robustly responsive was subsequently used in the small molecule screen.
Excessive scarring results from the formation of too many myofibroblasts and the production of too much extracellular matrix material such as collagen. Since TGFβ drives the formation of myofibroblasts in part through activating the Smad pathway, a reporter construct was designed to serve as a measure of TGFβ-induced Smad activity (FIG. 1A). Four tandem Smad binding elements (SBE) were inserted upstream of the minimal thymidine kinase promoter. The SBEx4-TK promoter was inserted into the pGL4.15 vector which contains a destabilized firefly luciferase gene and the hygromycin resistance gene. The pSBEx4-TK-luc-Hygro plasmid was then introduced into HEK293FT cells by lipofection. Stable clones were generated and screened for TGFβ induced luciferase activity. One clone was selected that consistently gave a 15 to 20-fold induction of luciferase activity when cells were treated with TGFβ for 24 hours (FIG. 1B).
To find compounds that inhibit TGFβ activity and thus may be novel anti-scarring compounds, the Spectrum collection of 2,300 small molecules was screened with the cell line. […] Salinomycin, an antibiotic produced from Streptomyces albus is used as coccidiostat agent in animal feed (Knirschova et al., “Multiple regulatory genes in the salinomycin biosynthetic gene cluster of Streptomyces albus CCM 4719,” Folia Microbiologica 52:359-365 (2007), which is hereby incorporated by reference in its entirety). […] Thus, further investigation was made to assess the use of salinomycin as an anti-scarring agent.

[3] = tested on: TGFβ-induced SBE-luciferase activity; assay: Secondary dual luciferase screen (SBE-luciferase normalized to constitutive Renilla luciferase); assay type: cell-based, human; conditions: secondary dual luciferase screen, several doses (low micromolar)
Procedure: FIG. 1A is a diagram of Smad-dependent reporter construct. Four tandem Smad binding elements (SBE) were inserted upstream of the minimal Thymidine Kinase (TK) promoter. Downstream of the promoter is a destabilized version of the firefly luciferase gene (luc2P) present in the pLuc2P-Hygro plasmid which also harbors the hygromycin resistance gene. The plasmid was introduced into HEK293FT cell line and individual colonies were selected with hygromycin (200 ug/ml) to develop a Smad/TGFβ dependent-luciferase reporter cell line. FIG. 1B is a graph illustrating the response of the reporter cell line to 1 ng/ml treatment of TGFβ for 20 hours, which results in an approximately 20-fold increase of luciferase activity.
They are: Benzbromarone (“BZB”), Bithionate sodium (“BTS”), Piplartine (piperlongumine) (“PPT”), Amsacrine (“ASC”), and Alexidine (“AXD”). A secondary luciferase screening assay was performed to determine specificity and dose responsiveness of these compounds in comparison to salinomycin (“SNC”). The secondary screen utilizes dual luciferase technology that includes the above mentioned SBE-luciferase in addition to a Renilla luciferase that is under control of the constitutive SV40 promoter. Therefore the SBE-luciferase activity can be normalized to the Renilla luciferase activity to control for toxicity and non-specific effects. The secondary screen can thus be used to remove small molecules that display overt toxicity and/or non-specific effects on the primary assay.

[4] = tested on: TGFβ-induced myofibroblast formation in human fibroblasts; assay: Western blot of myofibroblast markers αSMA and calponin in TGFβ-treated human (TED orbital) fibroblasts; assay type: cell-based; conditions: 250 nM, TGFβ, 72 hours
Procedure: TED fibroblasts were treated with TGFβ (1 ng/ml) in the presence or absence of 10-250 nM salinomycin for 72 hours to allow formation of myofibroblasts. After 72 hours, cells were harvested and analyzed by Western blot. As expected, the fibroblasts robustly responded to TGFβ, expressing high levels of αSMA and calponin (FIG. 2A). […] At 50 nM salinomycin, expression of αSMA was reduced by 4-fold over TGFβ treatment alone. Furthermore, at 250 nM salinomycin, αSMA expression was reduced by approximately 16-fold, to levels at or below untreated fibroblasts. […] Another key role of myofibroblasts in scar formation is the production of collagen. Whether salinomycin could block myofibroblast collagen production was assessed. Cells were treated with TGFβ and salinomycin as above and after 72 hours, culture medium was collected and analyzed for collagen levels using a specific collagen I antibody and slot blot analysis.
To test these four compounds, human fibroblasts were treated with TGFβ in the absence or presence of 250 nM of either salinomycin, narasin, clioquinol or monensin for 72 hours. After treatment, cell lysates were harvested and analyzed for the presence of the myofibroblast markers, αSMA and calponin (FIG. 3B).

[5] = tested on: human fibroblasts; assay: BrdU incorporation assay (cell proliferation); assay type: cell-based
Procedure: Human fibroblasts were seeded on a 96-well plate at a density of 1×10^5 cells/well. Cells were treated in triplicate. Cell proliferation was determined using the bromodeoxyuridine (BrdU) assay following manufacturer's instructions. Briefly, cells were treated with a BrdU label at a 1:2000 dilution for 24 h after the initial 72 h treatment with TGFβ+/−drugs. BrdU incorporation was measured using the BrdU Cell Proliferation Assay kit (Calbiochem, San Diego, Calif.) at 450-540 nm using a Varioskan microplate reader.
While salinomycin and other polyether ionophores blocked myofibroblast formation, it was next assessed whether these effects were a result of toxicity and/or due to a block of cell proliferation. Though the treatment doses are relatively low (efficacy in 100-250 nM range), a loss of cell viability could still be a possibility. To test this, human fibroblasts were treated with vehicle (DMSO), 50-250 nM salinomycin alone, TGFβ or TGFβ plus 250 nM salinomycin. As a positive control, fibroblasts were treated with the cytotoxic drug, puromycin. Treated cells were cultured in the presence of alamar blue reagent, which measures mitochondrial oxidation-reduction (REDOX) potential and serves as a quantitative viability sensor. After 72 hours of culture, alamar blue fluorescence was measured to assay cell viability (FIG. 4A). […] It was also tested whether salinomycin affects basal fibroblast proliferation. To address this, cells were treated with vehicle or 250 nm of either salinomycin or narasin for 24 hours in the presence of bromodeoxyuridine (BrdU) to measure cell proliferation ([…], first three bars). […] BrdU was also added to cells treated with TGFβ in the presence or absence of 250 nM salinomycin or narasin (FIG. 4B, last three bars). As expected, TGFβ induced human fibroblast proliferation. Remarkably, both salinomycin and narasin were able to beneficially block TGFβ induced proliferation by 4 to 5 fold, without affecting basal proliferation levels.

[6] = tested on: TGFβ-dependent myofibroblast formation in primary human fibroblasts; assay: Myofibroblast formation assay in primary human fibroblasts (morphology, Western blot) for Spectrum hits; assay type: cell-based; conditions: for α-SMA and calponin expression in human fibroblasts: FIG. 14 lanes: PPT 1, 5 uM, AXD 0.1, 1 uM, SNC 100 nM, 1 uM; for α-SMA and calponin expression in human fibroblasts / TGFβ-dependent αSMA and calponin (marker) expression / myofibroblast formation / phenotype: BTS, ASC; for TGFβ-dependent αSMA and calponin (marker) expression: higher dose: PPT 5 μM; for TGFβ-dependent αSMA and calponin (marker) expression / myofibroblast formation / phenotype: AXD 1 μM; for myofibroblast formation / phenotype: lowest effective dose from secondary screen: PPT 5 μM, SNC 0.1 μM, TGFβ 1 ng/ml, 72 hours
Procedure: Using the lowest effective dose from the secondary screening assay, PPT (5 μM), ASC (1 μM), BTS (1 μM), and AXD (1 μM) were compared to 0.1 μM SNC using primary human fibroblasts (FIG. 13). The myofibroblast formation assay consists of the following protocol: fibroblasts are treated with the aforementioned small molecules and treated with TGFβ (1 ng/ml) for 72 hours. The cells were then either photographed for morphological analysis or collected, lysed and analyzed by Western blot for the myofibroblast markers alpha-smooth muscle actin (αSMA) and calponin. β-tubulin was used as a loading control.
PPT was used at 1 and 5 μM (lanes 3 and 4), BTS was used at 0.1 and 1 μM (lanes 5 and 6), ASC was used at 0.1 and 1 μM (lanes 7 and 8), SNC was used at 100 nM and 1 μM (lanes 9 and 10), and AXD was used at 0.1 and 1 μM (lanes 11 and 12).

SMILES	inhibition of TGFβ-induced luciferase activity, initial screen [2]	inhibition of luciferase expression, dose responsiveness [3]	expression of αSMA and calponin [4]	α-SMA and calponin expression in human fibroblasts [6]	TGFβ-dependent αSMA and calponin (marker) expression [6]	myofibroblast formation / phenotype [6]	also measured
CC(C)C(=O)Nc1ccc([N+](=O)[O-])c(C(F)(F)F)c1 [flutamide, Flutamide]							overt toxicity [1]: No overt toxicity was observed; TGFβ-induced myofibroblast differentiation (αSMA expression) [1]: inhibited TGFβ-induced myofibroblast differentiation; also recorded: inhibits human orbital fibroblast to myofibroblast differentiation
CCc1oc2ccccc2c1C(=O)c1cc(Br)c(O)c(Br)c1 [BZB, benzbromarone]	inhibit TGFβ-induced luciferase	All but BZB substantially inhibited luciferase expression					
CC[C@@]1([C@@H]2O[C@@H]([C@H]3O[C@@](O)(CO)[C@H](C)C[C@@H]3C)C[C@@H]2C)CC[C@H]([C@]2(C)CC[C@]3(C[C@H](O)[C@@H](C)[C@@H]([C@@H](C)[C@@H](OC)[C@H](C)C(=O)O)O3)O2)O1 [monensin]			inhibited expression of αSMA and calponin				
CC[C@@H](C(=O)O)[C@@H]1O[C@@H]([C@@H](C)[C@H](O)[C@H](C)C(=O)[C@H](CC)[C@H]2O[C@]3(C=C[C@@H](O)[C@]4(CC[C@@](C)([C@H]5CC[C@](O)(CC)[C@H](C)O5)O4)O3)[C@H](C)C[C@@H]2C)[C@@H](C)C[C@@H]1C [narasin]			inhibited expression of αSMA and calponin				TGFβ induced proliferation (BrdU incorporation) ([5]; 250 nM plus TGFβ): significantly blocked TGFβ induced proliferation; basal fibroblast proliferation (BrdU incorporation) ([5]; 250 nM, without TGFβ): did not affect basal fibroblast proliferation; also recorded: Neither salinomycin nor narasin blocked basal fibroblast proliferation
COc1cc(/C=C/C(=O)N2CCC=CC2=O)cc(OC)c1OC [PPT, piplartine (piperlongumine)]	inhibit TGFβ-induced luciferase	substantially inhibited luciferase expression; also recorded: strong luciferase inhibition		inhibit β-dependent α-SMA and calponin expression	inhibited marker expression	inhibit myofibroblast phenotype; also recorded: inhibits myofibroblast formation	
Oc1c(I)cc(Cl)c2cccnc12 [clioquinol]			did not inhibit				
CCCCC(CC)CNC(=N)NC(=N)NCCCCCCNC(=N)NC(=N)NCC(CC)CCCC (stereo not drawn) [AXD, alexidine]	inhibit TGFβ-induced luciferase	substantially inhibited luciferase expression; also recorded: strong luciferase inhibition		inhibit β-dependent α-SMA and calponin expression	inhibited marker expression	inhibit myofibroblast phenotype; also recorded: inhibits myofibroblast formation	expression of Thy1 ([6]; high dose, 1 μM): did inhibit Thy1
COc1ccc2[nH]c([S+]([O-])Cc3ncc(C)c(OC)c3C)nc2c1 (racemic) [omeprazole]							αSMA expression ([1]; 100 μM): sub-baseline levels; overt toxicity [1]: No overt toxicity was observed; TGFβ-induced myofibroblast differentiation (αSMA expression) [1]: inhibited TGFβ-induced myofibroblast differentiation; also recorded: inhibits human orbital fibroblast to myofibroblast differentiation
Oc1c(Cl)cc(Cl)cc1Sc1cc(Cl)cc(Cl)c1O [BTS, bithionate sodium]	inhibit TGFβ-induced luciferase	substantially inhibited luciferase expression; also recorded: strong luciferase inhibition		inhibit β-dependent α-SMA and calponin expression	inhibited marker expression	inhibit myofibroblast phenotype; also recorded: inhibits myofibroblast formation	
COc1cc(NS(C)(=O)=O)ccc1Nc1c2ccccc2nc2ccccc12 [ASC, amsacrine]	inhibit TGFβ-induced luciferase	substantially inhibited luciferase expression; also recorded: strong luciferase inhibition		inhibit β-dependent α-SMA and calponin expression	inhibited marker expression	inhibit myofibroblast phenotype; also recorded: inhibits myofibroblast formation	
